What was measured:
[1] = target: T1, rat AMPK-α1 kinase domain (Rattus norvegicus, UniProt P54645, T183D); experiment: kinase assay of bacterially expressed α1 kinase domain; format: biochemical; conditions: bacterially expressed (GST fusion; T172D mutant); data not shown
T1 construct: a bacterially expressed GST fusion of the rat AMPK-α1 kinase domain; GST; made in house; host or cells: bacteria

[2] = target: T2, β1-GBD (Rattus norvegicus, UniProt P80386); experiment: capture of glycogen hydrolysate fragments on GST-β1 GBD affinity column; format: binding; conditions: from partial acid hydrolysate of bovine liver glycogen; eluted with propionic acid
T2 construct: The rat β1 GBD (residues 70-172 was cloned into pGEX6P2, expressed in Escherichia coli (BL21)); made in house; host or cells: E. coli BL21
T2 sequence (P80386 70-172): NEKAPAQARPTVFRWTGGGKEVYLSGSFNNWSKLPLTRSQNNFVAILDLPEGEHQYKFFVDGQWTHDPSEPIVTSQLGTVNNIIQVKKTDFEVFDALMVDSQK
Description: In an attempt to establish the chemical nature of the regions of glycogen that bind to the GBD and cause inhibition of the AMPK complex, we carried out partial acid hydrolysis of bovine liver glycogen and utilized the β1 GBD as an affinity matrix to purify hydrolysis products that bound to the GBD. The hydrolysis conditions were chosen to yield a range of oligosaccharides containing up to six glucose units, as detected by high-performance anion exchange chromatography (HPAEC). The hydrolysate was passed down a glutathione Sepharose column to which the GST-GBD had been prebound, and bound oligosaccharides eluted with propionic acid. The eluted oligosaccharides were analyzed by HPAEC (Figure 5A). […] That this disaccharide contained glucose was confirmed by collision-induced dissociation and tandem mass spectrometry (Figure 5B); the product ion spectrum contained a daughter peak at 203, corresponding to the mass of glucose plus one Na^+ ion. […]
To 60 μl of the material from HPAEC, 5 μl of 80% (v/v) acetonitrile plus 2% (v/v) formic acid was added. Small aliquots of this solution were transferred to Waters nanotips (Type F; Millipore, Watford, UK) and analyzed by electrospray ionization–mass spectrometry (ES-MS) in negative ion mode on an ABI Q-StarXL spectrometer (Applied Biosystems, Cambridge, UK). […]

T1 sequence (P54645 27-279 T183D): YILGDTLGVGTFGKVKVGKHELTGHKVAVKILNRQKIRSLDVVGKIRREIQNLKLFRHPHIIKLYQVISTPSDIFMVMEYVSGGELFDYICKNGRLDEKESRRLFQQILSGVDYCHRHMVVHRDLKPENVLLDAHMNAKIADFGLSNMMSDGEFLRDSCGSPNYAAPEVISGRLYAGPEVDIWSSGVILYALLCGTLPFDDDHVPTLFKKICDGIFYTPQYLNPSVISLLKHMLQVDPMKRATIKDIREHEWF

Compound: OC[C@H]1O[C@H](OC[C@H]2OC(O)[C@H](O)[C@@H](O)[C@@H]2O)[C@H](O)[C@@H](O)[C@@H]1O (some centres unmarked) [isomaltose]
- inhibition of isolated α1 kinase domain [1]: did not inhibit
- binding to immobilised β1-GBD [2]: bound to the β1-GBD

From publication PMC2642990, “The Glycogen-Binding Domain on the AMPK β Subunit Allows the Kinase to Act as a Glycogen Sensor” (Cell Metabolism, 2009)
